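Compound exposure: 48 hours, 5 concentrations, 96-well plates. At the GI50, growth is halved.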 Activity calls are given as the source filed them. Cut-off read from the data, not from the text of the source: active = GI50 up to about 1.1 µM and inactive = higher.

Consider five compounds from ChEMBL document CHEMBL1201862, “PubChem BioAssay data set” (2004).

Among the test systems are COLO 205; EKVX; HL-60; Hs-578T; KM12; LOX IMVI; MDA-MB-231; MDA-MB-435; MOLT-4; NCI-H23; NCI/ADR-RES; OVCAR-5; RPMI-8226; SK-MEL-28; U-251; UACC-62; HCC 2998; Malme-3M; A498.
Common to all, as to assay: DTP human tumour cell line panel, 48 h

With `CCc1n[nH]c(=O)n1/N=C(\C)c1ccc([N+](=O)[O-])cc1`, the GI50 in the test on COLO 205 is 46.5 µM (inactive); in the test with EKVX, > 100 µM (inactive); in the test on HL-60, > 100 µM (inactive); in the test with Hs-578T, 92.3 µM (inactive); with KM12, > 100 µM (inactive); with LOX IMVI, 49.4 µM (inactive). Besides, the GI50 was 19.7 µM (inactive) in the test with MDA-MB-231; 59.7 µM (inactive) in the test on MDA-MB-435; > 100 µM (inactive) with MOLT-4; 66.8 µM (inactive) in the test with NCI-H23; > 100 µM (inactive) with NCI/ADR-RES; > 100 µM (inactive) with OVCAR-5. In addition, the GI50 in the test on RPMI-8226, in the test on SK-MEL-28, in the test on U-251 and in the test on UACC-62 was > 100 µM (inactive) in each case.
Take `COC1CCON1C(=O)c1ccccc1` (configuration not stated): the GI50 with COLO 205, in the test with EKVX, with HCC 2998, with HL-60, with Hs-578T and in the test on LOX IMVI was > 10 µM (inactive) in each case. Moreover, the GI50 with MDA-MB-231, in the test on MDA-MB-435, in the test with MOLT-4, with Malme-3M, in the test with NCI-H23 and in the test with NCI/ADR-RES was > 10 µM (inactive) throughout. The GI50 in the test on OVCAR-5, in the test with RPMI-8226 and with SK-MEL-28 was > 10 µM (inactive) each time.
As to `COc1cccc(C2CC(C)(O)Oc3cc4c(cc32)OCO4)c1` (configuration not stated), the GI50 is 20.7 µM (inactive) in the test on COLO 205; 36.1 µM (inactive) in the test on EKVX; 27.5 µM (inactive) in the test with HCC 2998; 17.2 µM (inactive) with HL-60; 16.4 µM (inactive) in the test on Hs-578T; 11.2 µM (inactive) in the test with KM12. Moreover, the GI50 in the test with LOX IMVI is 22.3 µM (inactive); with MDA-MB-231, 24.1 µM (inactive); in the test on MDA-MB-435, 3.3 µM (inactive); in the test with MOLT-4, 8.97 µM (inactive); with Malme-3M, 26.2 µM (inactive); in the test on NCI-H23, 28.1 µM (inactive). Besides, the GI50 was 16.3 µM (inactive) in the test on NCI/ADR-RES; 35.8 µM (inactive) with OVCAR-5; 16.1 µM (inactive) in the test on RPMI-8226; 52.6 µM (inactive) in the test with SK-MEL-28; 23.4 µM (inactive) in the test on U-251; 14.4 µM (inactive) with UACC-62.
With `O=C1CNc2cc(N3CCN(c4cccc(C(F)(F)F)c4)CC3)ccc2N1`, the GI50 in the test with COLO 205 was 27.5 µM (inactive); with EKVX it was 91 µM (inactive); with HCC 2998 it was 68.1 µM (inactive); in the test on HL-60, 19.9 µM (inactive); in the test on Hs-578T, 42.1 µM (inactive); in the test on KM12, 32.9 µM (inactive). The GI50 was 38.4 µM (inactive) in the test with LOX IMVI; > 100 µM (inactive) with MDA-MB-231; 95.5 µM (inactive) with MDA-MB-435; 28.7 µM (inactive) in the test on MOLT-4; 14.2 µM (inactive) with Malme-3M; 39.9 µM (inactive) in the test on NCI-H23. The GI50 in the test on NCI/ADR-RES was 34.6 µM (inactive); with OVCAR-5, 68.5 µM (inactive); with RPMI-8226, 31.7 µM (inactive); with SK-MEL-28, 68.5 µM (inactive); with U-251, 31 µM (inactive); in the test on UACC-62 it was 35.1 µM (inactive).
Regarding `CC(=O)O[C@H]1CC[C@@]2(C)C(=CC[C@@H]3[C@@H]2CC[C@]2(C)C(=N/O)/C(=C/c4ccc([N+](=O)[O-])cc4)C[C@@H]32)C1`, the GI50 was 4.71 µM (inactive) in the test on A498; 2.29 µM (inactive) with COLO 205; 2.33 µM (inactive) in the test with HL-60; 2.39 µM (inactive) in the test on Hs-578T; 5.22 µM (inactive) with KM12; 6.52 µM (inactive) in the test on LOX IMVI. Moreover, the GI50 with MDA-MB-231 is 8.89 µM (inactive); with MDA-MB-435, 3.32 µM (inactive); in the test on MOLT-4 it was 3.58 µM (inactive); in the test on Malme-3M it was 4.61 µM (inactive); with NCI-H23 it was 2.31 µM (inactive); in the test on NCI/ADR-RES, 6.84 µM (inactive). Also, the GI50 was 1.06 µM (active) in the test with RPMI-8226, 11 µM (inactive) with SK-MEL-28 and 1.76 µM (inactive) in the test on UACC-62.

The term GI50 denotes the concentration giving 50% growth inhibition.
